Test results as given in patent US9023821B2, “Use of MicroRNA for treating diseases associated with a dysfunction of the cilia in multiciliated epithelial cells” (Centre National de la Recherche Scientifique, priority 2009, dated 2015).

What was measured:
[1] = tested on: basal cells and pyramidal cells of the airway epithelium; test: miRNA expression in sorted basal cells versus pyramidal cells (ciliated + secretory), HTS and Agilent chips; parameters: species or system human; details: for Modulation of expression of the miRNAs in pyramidal cells (323(−)) relative to basal cells 323(+): HTS and Agilent chips; for Intensity of the level of expression in log2 in pyramidal cells (323(−)): pyramidal cells (ciliated + secretory)
Method in brief: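 Nasal polyp or concha epithelial cells from 3 donors FACS-sorted into CD151+/tissue factor+ basal cells and CD151−/TF− pyramidal (ciliated plus mucus-secreting) cells, excluding dead (DAPI) cells and doublets. miRNA profiles from total RNA obtained by Agilent chips or high-throughput sequencing.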

[2] = tested on: human airway epithelial cells (HAECs); test: Agilent miRNA chips, miRNA expression at four stages of differentiation of HAECs; details: for Modulation (ratio of the level of intensity of expression in log2 in two stages of differentiation) measured with the Agilent chips, D7 − D0 / Modulation (ratio of the level of intensity of expression in log2 in two stages of differentiation) measured with the Agilent chips, FC − D7 / Modulation (ratio of the level of intensity of expression in log2 in two stages of differentiation) measured with the Agilent chips, WD − D0 / Modulation (ratio of the level of intensity of expression in log2 in two stages of differentiation) measured with the Agilent chips, WD − FC / Level of intensity of expression in log2 measured with the Agilent chips, D0 / Level of intensity of expression in log2 measured with the Agilent chips, D7 / Level of intensity of expression in log2 measured with the Agilent chips, FC / Level of intensity of expression in log2 measured with the Agilent chips, WD: Table VI; for Level of intensity of expression in log2 measured with the Agilent chips, D0: stage D0; for Level of intensity of expression in log2 measured with the Agilent chips, D7: stage D7; for Level of intensity of expression in log2 measured with the Agilent chips, FC: stage FC; for Level of intensity of expression in log2 measured with the Agilent chips, WD: stage WD
Method in brief: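 Expression was profiled on Human miRNA Microarray v2 chips covering 866 human and 89 human viral miRNAs from miRBase v12.0. Labelled HAEC RNA came from the same patients used for sequencing and was hybridized per kit protocol. Chip and sequencing results were compared.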

[3] = tested on: human airway epithelial cells (HAECs); test: High-throughput sequencing (HTS) of miRNAs at four stages of differentiation of HAECs; details: for Modulation (ratio of the level of intensity of expression in log2 in two stages of differentiation) measured by high-throughput sequencing, D7 − D0 / Modulation (ratio of the level of intensity of expression in log2 in two stages of differentiation) measured by high-throughput sequencing, FC − D7 / Modulation (ratio of the level of intensity of expression in log2 in two stages of differentiation) measured by high-throughput sequencing, WD − D0 / Modulation (ratio of the level of intensity of expression in log2 in two stages of differentiation) measured by high-throughput sequencing, WD − FC / Level of intensity of expression in log2 measured by high-throughput sequencing, D0 / Level of intensity of expression in log2 measured by high-throughput sequencing, D7 / Level of intensity of expression in log2 measured by high-throughput sequencing, FC / Level of intensity of expression in log2 measured by high-throughput sequencing, WD: Table VI; for Modulation (ratio of the level of intensity of expression in log2 in two stages of differentiation), D7 − D0 / Modulation (ratio of the level of intensity of expression in log2 in two stages of differentiation), FC − D7 / Modulation (ratio of the level of intensity of expression in log2 in two stages of differentiation), WD − FC / Abundance (%), D0 / Abundance (%), D7 / Abundance (%), FC / Abundance (%), WD: HTS; for Abundance (%), D0: ALI-D0; for Abundance (%), D7: ALI-D7; for Abundance (%), FC: ALI-FC; for Abundance (%), WD: ALI-WD; for Level of intensity of expression in log2 At the differentiated stage (WD) measured in HTS: healthy human airway epithelial tissue; for Level of intensity of expression in log2 measured by high-throughput sequencing, D0: stage D0; for Level of intensity of expression in log2 measured by high-throughput sequencing, D7: stage D7; for Level of intensity of expression in log2 measured by high-throughput sequencing, FC: stage FC; for Level of intensity of expression in log2 At the differentiated stage (WD) measured in HTS / Level of intensity of expression in log2 measured by high-throughput sequencing, WD: stage WD
Method in brief: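 Total RNA (with small RNAs) from air-liquid-interface HAECs at ALI-D0, D7, first cilia (~14 d) and fully differentiated (~21 d); adaptor-ligated SOLiD small-RNA libraries, RT-PCR, gel-selected ~105-150 bases. Counts normalized to 10^6 sequences as % abundance; linear-model/empirical Bayes; kept >1% abundance, |Log2 Ratio| <0.5, adjusted P <0.05.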

Substance: hsa-miR-140-3p: human miRNA, SEQ ID No. 5 (UACCACAGGGUAGAACCACGG; expressed or natural sequence; listed as Homo sapiens)
- Modulation of expression of the miRNAs in pyramidal cells (323(−)) relative to basal cells 323(+) [1]: 0.91
- Intensity of the level of expression in log2 in basal cells (323(+)) [1]: 2.75 log2
- Intensity of the level of expression in log2 in pyramidal cells (323(−)) [1]: 3.66 log2
- Modulation (ratio of the level of intensity of expression in log2 in two stages of differentiation) measured with the Agilent chips, D7 − D0 [2]: 1.54 log2
- Modulation (ratio of the level of intensity of expression in log2 in two stages of differentiation) measured with the Agilent chips, FC − D7 ([2]; FC − D7): −0.08 log2
- Modulation (ratio of the level of intensity of expression in log2 in two stages of differentiation) measured with the Agilent chips, WD − D0 [2]: 1.52 log2
- Modulation (ratio of the level of intensity of expression in log2 in two stages of differentiation) measured with the Agilent chips, WD − FC ([2]; WD − FC): 0.06 log2
- Level of intensity of expression in log2 measured with the Agilent chips, D0 [2]: 3.55 log2
- Level of intensity of expression in log2 measured with the Agilent chips, D7 [2]: 5.09 log2
- Level of intensity of expression in log2 measured with the Agilent chips, FC [2]: 5.01 log2
- Level of intensity of expression in log2 measured with the Agilent chips, WD [2]: 5.07 log2
- Modulation (ratio of the level of intensity of expression in log2 in two stages of differentiation) measured by high-throughput sequencing, D7 − D0 [3]: 0.33 log2
- Modulation (ratio of the level of intensity of expression in log2 in two stages of differentiation) measured by high-throughput sequencing, FC − D7 [3]: 0.37 log2
- Modulation (ratio of the level of intensity of expression in log2 in two stages of differentiation), D7 − D0 [3]: 0.33 log2
- Modulation (ratio of the level of intensity of expression in log2 in two stages of differentiation), FC − D7 [3]: 0.37 log2
- Modulation (ratio of the level of intensity of expression in log2 in two stages of differentiation), WD − FC [3]: 0.04 log2
- Abundance (%), D0 [3]: 1.17%
- Abundance (%), D7 [3]: 1.48%
- Abundance (%), FC [3]: 1.85%
- Abundance (%), WD [3]: 1.44%
- Modulation (ratio of the level of intensity of expression in log2 in two stages of differentiation) measured by high-throughput sequencing, WD − D0 [3]: 0.73 log2
- Modulation (ratio of the level of intensity of expression in log2 in two stages of differentiation) measured by high-throughput sequencing, WD − FC [3]: 0.04 log2
- Level of intensity of expression in log2 At the differentiated stage (WD) measured in HTS [3]: 13.12 log2
- Level of intensity of expression in log2 measured by high-throughput sequencing, D0 [3]: 12.39 log2
- Level of intensity of expression in log2 measured by high-throughput sequencing, D7 [3]: 12.72 log2
- Level of intensity of expression in log2 measured by high-throughput sequencing, FC [3]: 13.08 log2
- Level of intensity of expression in log2 measured by high-throughput sequencing, WD [3]: 13.12 log2

Substance: hsa-miR-25: human miRNA, SEQ ID No. 27 (CAUUGCACUUGUCUCGGUCUGA; expressed or natural sequence; listed as Homo sapiens)
- Modulation of expression of the miRNAs in pyramidal cells (323(−)) relative to basal cells 323(+) [1]: −0.70
- Intensity of the level of expression in log2 in basal cells (323(+)) [1]: 5.40 log2
- Intensity of the level of expression in log2 in pyramidal cells (323(−)) [1]: 4.70 log2
- Modulation (ratio of the level of intensity of expression in log2 in two stages of differentiation) measured with the Agilent chips, D7 − D0 [2]: 1.35 log2
- Modulation (ratio of the level of intensity of expression in log2 at two stages of differentiation), FC − D7 ([2]; FC − D7, Agilent miRNA chips, Table V): −0.65 log2
- Modulation (ratio of the level of intensity of expression in log2 in two stages of differentiation) measured with the Agilent chips, FC − D7 ([2]; FC − D7): −0.65 log2
- Modulation (ratio of the level of intensity of expression in log2 in two stages of differentiation) measured with the Agilent chips, WD − D0 [2]: 0.66 log2
- Modulation (ratio of the level of intensity of expression in log2 at two stages of differentiation), WD − FC ([2]; WD − FC, Agilent miRNA chips, Table V): −0.05 log2
- Modulation (ratio of the level of intensity of expression in log2 in two stages of differentiation) measured with the Agilent chips, WD − FC ([2]; WD − FC): −0.05 log2
- Level of intensity of expression in log2 measured with the Agilent chips, D0 [2]: 7.15 log2
- Level of intensity of expression in log2 measured with the Agilent chips, D7 [2]: 8.50 log2
- Level of intensity of expression in log2 measured with the Agilent chips, FC [2]: 7.85 log2
- Level of intensity of expression in log2 measured with the Agilent chips, WD [2]: 7.80 log2
- Modulation (ratio of the level of intensity of expression in log2 in two stages of differentiation) measured by high-throughput sequencing, D7 − D0 [3]: 0.66 log2
- Modulation (ratio of the level of intensity of expression in log2 in two stages of differentiation) measured by high-throughput sequencing, FC − D7 [3]: −0.03 log2
- Modulation (ratio of the level of intensity of expression in log2 in two stages of differentiation) measured by high-throughput sequencing, WD − D0 [3]: 0.24 log2
- Modulation (ratio of the level of intensity of expression in log2 in two stages of differentiation) measured by high-throughput sequencing, WD − FC [3]: −0.39 log2
- Level of intensity of expression in log2 At the differentiated stage (WD) measured in HTS [3]: 3.52 log2
- Level of intensity of expression in log2 measured by high-throughput sequencing, D0 [3]: 9.11 log2
- Level of intensity of expression in log2 measured by high-throughput sequencing, D7 [3]: 9.77 log2
- Level of intensity of expression in log2 measured by high-throughput sequencing, FC [3]: 9.74 log2
- Level of intensity of expression in log2 measured by high-throughput sequencing, WD [3]: 9.35 log2

Substance: hsa-miR-210: human miRNA, SEQ ID No. 22
- Modulation of expression of the miRNAs in pyramidal cells (323(−)) relative to basal cells 323(+) [1]: −2.03
- Intensity of the level of expression in log2 in basal cells (323(+)) [1]: 6.60 log2
- Intensity of the level of expression in log2 in pyramidal cells (323(−)) [1]: 4.57 log2
- Modulation (ratio of the level of intensity of expression in log2 in two stages of differentiation) measured with the Agilent chips, D7 − D0 [2]: 0.18 log2
- Modulation (ratio of the level of intensity of expression in log2 in two stages of differentiation) measured with the Agilent chips, FC − D7 ([2]; FC − D7): −0.63 log2
- Modulation (ratio of the level of intensity of expression in log2 in two stages of differentiation) measured with the Agilent chips, WD − D0 [2]: −0.56 log2
- Modulation (ratio of the level of intensity of expression in log2 in two stages of differentiation) measured with the Agilent chips, WD − FC ([2]; WD − FC): −0.11 log2
- Level of intensity of expression in log2 measured with the Agilent chips, D0 [2]: 9.08 log2
- Level of intensity of expression in log2 measured with the Agilent chips, D7 [2]: 9.25 log2
- Level of intensity of expression in log2 measured with the Agilent chips, FC [2]: 8.63 log2
- Level of intensity of expression in log2 measured with the Agilent chips, WD [2]: 8.52 log2
- Modulation (ratio of the level of intensity of expression in log2 in two stages of differentiation) measured by high-throughput sequencing, D7 − D0 [3]: −0.96 log2
- Modulation (ratio of the level of intensity of expression in log2 in two stages of differentiation) measured by high-throughput sequencing, FC − D7 [3]: −0.74 log2
- Modulation (ratio of the level of intensity of expression in log2 in two stages of differentiation), D7 − D0 [3]: −0.96 log2
- Modulation (ratio of the level of intensity of expression in log2 in two stages of differentiation), FC − D7 [3]: −0.74 log2
- Modulation (ratio of the level of intensity of expression in log2 in two stages of differentiation), WD − FC [3]: −0.10 log2
- Abundance (%), D0 [3]: 1.10%
- Abundance (%), D7 [3]: 0.57%
- Abundance (%), FC [3]: 0.33%
- Abundance (%), WD [3]: 0.23%
- Modulation (ratio of the level of intensity of expression in log2 in two stages of differentiation) measured by high-throughput sequencing, WD − D0 [3]: −1.80 log2
- Modulation (ratio of the level of intensity of expression in log2 in two stages of differentiation) measured by high-throughput sequencing, WD − FC [3]: −0.10 log2
- Level of intensity of expression in log2 At the differentiated stage (WD) measured in HTS [3]: 9.29 log2
- Level of intensity of expression in log2 measured by high-throughput sequencing, D0 [3]: 12.29 log2
- Level of intensity of expression in log2 measured by high-throughput sequencing, D7 [3]: 11.33 log2
- Level of intensity of expression in log2 measured by high-throughput sequencing, FC [3]: 10.60 log2
- Level of intensity of expression in log2 measured by high-throughput sequencing, WD [3]: 10.49 log2
